Target: T1, Amine oxidase [flavin-containing] A (Rattus norvegicus, UniProt P21396)
T1 sequence (P21396 whole entry): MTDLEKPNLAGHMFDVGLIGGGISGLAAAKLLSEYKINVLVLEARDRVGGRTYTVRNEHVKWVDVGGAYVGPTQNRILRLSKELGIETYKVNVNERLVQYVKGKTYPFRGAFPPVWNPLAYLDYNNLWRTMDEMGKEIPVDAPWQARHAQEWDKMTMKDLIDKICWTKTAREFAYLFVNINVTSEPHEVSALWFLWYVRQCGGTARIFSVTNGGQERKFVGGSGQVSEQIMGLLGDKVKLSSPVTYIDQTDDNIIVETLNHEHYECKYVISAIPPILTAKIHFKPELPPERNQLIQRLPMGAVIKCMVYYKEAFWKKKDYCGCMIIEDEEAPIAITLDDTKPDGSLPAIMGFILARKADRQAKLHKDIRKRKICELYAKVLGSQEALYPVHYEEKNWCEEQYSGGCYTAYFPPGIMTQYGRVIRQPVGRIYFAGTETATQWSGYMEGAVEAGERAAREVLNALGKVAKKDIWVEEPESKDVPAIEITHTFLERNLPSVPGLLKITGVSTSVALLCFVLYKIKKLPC
Assay: Inhibition of Sprague-Dawley rat MAO-A

- IC50: 2.8 µM
SMILES: C[C@H](NCc1ccc(OCc2cccc(F)c2)cc1)C(N)=O [SAFINAMIDE]

From ChEMBL document CHEMBL5143679, “Discovery of 3, 6-disubstituted isobenzofuran-1(3H)-ones as novel inhibitors of monoamine oxidases” (Bioorg Med Chem Lett, 2022)
